Laboratory results published in PubChem BioAssay AID248 (DTP/NCI, 2004).
“And” between values parts separate entries of the source, which are not always exact repeats. Identical values can stand only once. Toxic doses and inconclusive results are not listed. No stated cut-off is given here; in the data, active means T/C of 150% or more; inactive means T/C below 125%.

Tested on: L1210 leukemia ip in BDF1 mice, survival T/C
Assay: NCI In Vivo Anticancer Drug Screen. Data for tumor model L1210 Leukemia (intraperitoneal) in B6D2F1 (BDF1) mice
Settings: endpoint: mean survival time, higher = longer survival
Outline: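 Survival endpoint. Drug-treated group vs vehicle group, expressed as T divided by C. Tumor passaged by transplantation.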

[1] = dose: 100.0 mg/kg/injection, schedule: Q04DX003 (ip), vehicle: saline with Tween-80
[2] = dose: 200.0 mg/kg/injection, schedule: Q04DX003 (ip), vehicle: saline with Tween-80
[3] = dose: 400.0 mg/kg/injection, schedule: Q04DX003 (ip), vehicle: saline with Tween-80
[4] = dose: 100.0 mg/kg/injection, schedule: Q01DX009 (ip), vehicle: Klucel (hydroxypropylcellulose) (HPC)
[5] = dose: 200.0 mg/kg/injection, schedule: Q01DX009 (ip), vehicle: Klucel (hydroxypropylcellulose) (HPC)
[6] = dose: 400.0 mg/kg/injection, schedule: Q01DX009 (ip), vehicle: Klucel (hydroxypropylcellulose) (HPC)
[7] = dose: 100.0 mg/kg/injection, schedule: Q01DX001 (ip), vehicle: Klucel (hydroxypropylcellulose) (HPC)
[8] = dose: 200.0 mg/kg/injection, schedule: Q01DX001 (ip), vehicle: Klucel (hydroxypropylcellulose) (HPC)
[9] = dose: 400.0 mg/kg/injection, schedule: Q01DX001 (ip), vehicle: Klucel (hydroxypropylcellulose) (HPC)
[10] = dose: 100.0 mg/kg/injection, schedule: Q01DX001 (ip), vehicle: carboxymethylcellulose (CMC)
[11] = dose: 200.0 mg/kg/injection, schedule: Q01DX001 (ip), vehicle: carboxymethylcellulose (CMC)
[12] = dose: 400.0 mg/kg/injection, schedule: Q01DX001 (ip), vehicle: carboxymethylcellulose (CMC)
[13] = dose: 100.0 mg/kg/injection, schedule: Q04DX002 (ip), vehicle: Klucel (hydroxypropylcellulose) (HPC)
[14] = dose: 200.0 mg/kg/injection, schedule: Q04DX002 (ip), vehicle: Klucel (hydroxypropylcellulose) (HPC)
[15] = dose: 100.0 mg/kg/injection, schedule: Q04DX003 (ip), vehicle: Klucel (hydroxypropylcellulose) (HPC)
[16] = dose: 200.0 mg/kg/injection, schedule: Q04DX003 (ip), vehicle: Klucel (hydroxypropylcellulose) (HPC)
[17] = dose: 400.0 mg/kg/injection, schedule: Q04DX003 (ip), vehicle: Klucel (hydroxypropylcellulose) (HPC)
[18] = dose: 100.0 mg/kg/injection, schedule: Q01DX009 (ip), vehicle: saline with Tween-80
[19] = dose: 200.0 mg/kg/injection, schedule: Q01DX009 (ip), vehicle: saline with Tween-80
[20] = dose: 400.0 mg/kg/injection, schedule: Q01DX009 (ip), vehicle: saline with Tween-80
[21] = dose: 100.0 mg/kg/injection, schedule: Q01DX001 (ip), vehicle: saline
[22] = dose: 200.0 mg/kg/injection, schedule: Q01DX001 (ip), vehicle: saline
[23] = dose: 400.0 mg/kg/injection, schedule: Q01DX001 (ip), vehicle: saline

Measured: T/C

O=C(Nc1ccc([N+](=O)[O-])cc1[N+](=O)[O-])C(Cl)(Cl)Cl
inactive: [1] 94 % of control | [2] 96 % of control | [3] 105 % of control

O=c1c2ccccc2nc(-c2ccccc2)n1/N=C/c1ccco1
inactive: [4] 93 % of control | [5] 94 % of control | [6] 96 % of control

CC12CCC3c4ccc(O)c(N)c4CCC3C1CCC2=O (stereo not drawn)
inactive: [7] 102 % of control | [8] 102 % of control | [9] 101 % of control

O=C1c2ccccc2CCCC1Br (stereo not drawn)
inactive: [10] 95 % of control | [11] 87 % of control | [12] 92 % of control

COc1cc(/C=N/NC(=O)c2ccccc2N)ccc1O
inactive: [13] 98 % of control | [14] 106 % of control | dose: 400.0 mg/kg/injection, schedule: Q04DX002 (ip), vehicle: Klucel (hydroxypropylcellulose) (HPC) 109 % of control

CC(=O)CC(=O)Nc1nc2ccccc2s1
inactive: [15] 92 % of control | [16] 103 % of control | [17] 97 % of control

CSc1ncc(Br)c(C(=O)O)n1
inactive: [18] 93 % of control | [19] 93 % of control | [20] 94 % of control

C=CC(=C)OC
inactive: dose: 25.0 mg/kg/injection, schedule: Q01DX005 (ip), vehicle: saline 117 % of control | dose: 50.0 mg/kg/injection, schedule: Q01DX005 (ip), vehicle: saline 113 % of control | dose: 100.0 mg/kg/injection, schedule: Q01DX005 (ip), vehicle: saline 111 % of control | dose: 200.0 mg/kg/injection, schedule: Q01DX005 (ip), vehicle: saline 107 % of control | dose: 400.0 mg/kg/injection, schedule: Q01DX005 (ip), vehicle: saline 111 % of control

CCCC(/C=N/Nc1ccc([N+](=O)[O-])cc1[N+](=O)[O-])=C\c1ccccc1
inactive: dose: 100.0 mg/kg/injection, schedule: Q01DX001 (ip), vehicle: saline with Tween-80 88 % of control | dose: 200.0 mg/kg/injection, schedule: Q01DX001 (ip), vehicle: saline with Tween-80 88 % of control

CNc1ccc(C(=O)c2ccccc2C(=O)O)cc1[N+](=O)[O-]
inactive: [18] 92 % of control | [1] 97 % of control | [19] 95 % of control | [2] 89 % of control | [20] 93 % of control | [3] 94 % of control

N#CC(CC(=O)O)=C(c1ccccc1)c1ccccc1
inactive: [7] 106 % of control | [4] 97 % of control and 104 % of control | [13] 96 % of control and 98 % of control | [15] 97 % of control | [8] 110 % of control | [5] 95 % of control and 101 % of control | [14] 95 % of control and 101 % of control | [16] 101 % of control

CCSCc1cnc(N)nc1-c1ccccc1
inactive: [1] 97 % of control | [2] 94 % of control | [3] 86 % of control

CCC(CC)C(=O)OCC(C)(C)C
inactive: [10] 96 % of control | [11] 104 % of control | [12] 96 % of control

OCC1OCOC2COCOC12 (stereo not drawn)
inactive: [18] 94 % of control | [19] 98 % of control | [20] 104 % of control

O=C(Nc1cccc(F)c1)Nc1cccc(C(F)(F)F)c1
inactive: [4] 96 % of control | [5] 95 % of control | [6] 105 % of control

COc1ccc(CCN=c2c3ccccc3ccc3ccccc23)cc1OC
inactive: dose: 100.0 mg/kg/injection, schedule: Q04DX003 (ip), vehicle: saline 111 % of control | dose: 200.0 mg/kg/injection, schedule: Q04DX003 (ip), vehicle: saline 97 % of control | dose: 400.0 mg/kg/injection, schedule: Q04DX003 (ip), vehicle: saline 105 % of control

C[As](C)N
inactive: dose: 10.0 mg/kg/injection, schedule: Q01DX001 (ip), vehicle: saline 102 % of control | dose: 15.0 mg/kg/injection, schedule: Q01DX001 (ip), vehicle: saline 93 % of control | dose: 20.0 mg/kg/injection, schedule: Q01DX001 (ip), vehicle: saline 120 % of control | dose: 30.0 mg/kg/injection, schedule: Q01DX001 (ip), vehicle: saline 91 % of control | dose: 60.0 mg/kg/injection, schedule: Q01DX001 (ip), vehicle: saline 90 % of control

CCCCCCC[CH2][Sn]([Cl])([Cl])[CH2]CCCCCCC
inactive: dose: 50.0 mg/kg/injection, schedule: Q01DX001 (ip), vehicle: carboxymethylcellulose (CMC) 96 % of control | [10] 96 % of control | [11] 96 % of control | [12] 96 % of control

CN(CSc1ccc([N+](=O)[O-])cc1)CSc1ccc([N+](=O)[O-])cc1
inactive: [21] 94 % of control | [22] 88 % of control | [23] 94 % of control

CCCCOc1c(Cl)c(Cl)c(OP(=O)(OCCCC)OCCCC)c(Cl)c1Cl
inactive: dose: 100.0 mg/kg/injection, schedule: Q04DX002 (ip), vehicle: other 103 % of control | dose: 200.0 mg/kg/injection, schedule: Q04DX002 (ip), vehicle: other 88 % of control | dose: 400.0 mg/kg/injection, schedule: Q04DX002 (ip), vehicle: other 103 % of control

c1ccc(CN2CCOCC2)nc1
inactive: [21] 96 % of control | [22] 113 % of control | [23] 98 % of control

O=S(=O)(Cc1ccccc1)CC(Cl)c1ccccc1 (stereo not drawn)
inactive: [7] 98 % of control | [15] 97 % of control | [8] 98 % of control | [16] 101 % of control | [9] 104 % of control | [17] 92 % of control

CC(C)=NNC(=O)c1ccc(Cl)cc1
inactive: [18] 95 % of control | [19] 106 % of control | [20] 116 % of control

CNS(=O)(=O)c1c(C)cccc1CC(=O)c1ccccc1
inactive: dose: 100.0 mg/kg/injection, schedule: Q01DX001 (ip), vehicle: steriod suspending solution 96 % of control | dose: 400.0 mg/kg/injection, schedule: Q01DX001 (ip), vehicle: steriod suspending solution 94 % of control

Cc1ccc(S(=O)(=O)n2cc[nH]c2=O)cc1
inactive: [7] 100 % of control | [8] 100 % of control | [9] 105 % of control

COc1cccc(CC(=O)C(=O)O)c1
inactive: dose: 50.0 mg/kg/injection, schedule: Q01DX009 (ip), vehicle: Klucel (hydroxypropylcellulose) (HPC) 98 % of control | [4] 90 % of control | [15] 97 % of control | [5] 95 % of control | [16] 98 % of control

CCOC(=O)C1CN(C(C)(C)C)C(=O)C1=O (stereo not drawn)
inactive: dose: 50.0 mg/kg/injection, schedule: Q01DX001 (ip), vehicle: saline 106 % of control | [21] 102 % of control | [22] 108 % of control | [23] 100 % of control
